Experiments:
VIOTR = assay: Post-emergence herbicidal action against VIOTR; format: in vivo, Viola tricolor; conditions: application rate 80 g/ha, rated visually about 3 weeks after treatment
Experimental: (§1) [table] 2. Post-emergence herbicidal action against harmful plants and crop plant compatibility Seeds of monocotyledonous and dicotyledonous weeds and crop plants are placed in sandy loam in plastic or wood-fibre pots, covered with soil and cultivated in a greenhouse under controlled growth conditions. 2 to 3 weeks after sowing, the test plants are treated at the one-leaf stage. The compounds of the invention, formulated in the form of wettable powders (WP) or as emulsion concentrates (EC), are then sprayed onto the green parts of the plants as aqueous suspension or emulsion with addition of 0.5% additive at a water application rate of 600 l/ha (converted). After the test plants have been kept in the greenhouse under optimum growth conditions for about 3 weeks, the activity of the preparations is rated visually in comparison to untreated controls. For example, 100% activity=the plants have died, 0% activity=like control plants.

AVEFA = assay: Post-emergence herbicidal action against AVEFA; format: in vivo, Avena fatua; conditions: application rate 80 g/ha, rated visually after about 3 weeks
Outline: (§2)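 Spray-treated at one-leaf stage, 2 to 3 weeks after sowing; greenhouse, sandy loam. Formulation WP or EC, 0.5% additive, 600 l/ha. Readout: visual percent activity at about 3 weeks, untreated = 0%.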

ALOMY = assay: Post-emergence herbicidal action against ALOMY; format: in vivo, Alopecurus myosuroides; conditions: application rate 80 g/ha, rated visually after about 3 weeks
Outline: as §2

LOLRI = assay: Post-emergence herbicidal action against LOLRI; format: in vivo, Lolium rigidum; conditions: application rate 80 g/ha, rated visually after about 3 weeks
Outline: as §2

AMARE = assay: Post-emergence herbicidal action against AMARE; format: in vivo, Amaranthus retroflexus; conditions: application rate 80 g/ha, rated visually about 3 weeks after treatment
Outline: as §2

PHBPU = assay: Post-emergence herbicidal action against PHBPU; format: in vivo, Pharbitis purpurea; conditions: application rate 80 g/ha, rated visually about 3 weeks after treatment
Experimental: as §1

VERPE = assay: Post-emergence herbicidal action against VERPE; format: in vivo, Veronica persica; conditions: application rate 80 g/ha
Outline: as §2

ECHCG = assay: Post-emergence herbicidal action against ECHCG; format: in vivo, Echinochloa crus-galli; conditions: application rate 80 g/ha, rated visually after about 3 weeks
Outline: as §2

STEME = assay: Post-emergence herbicidal action against STEME; format: in vivo, Stellaria media; conditions: application rate 80 g/ha, rated visually about 3 weeks after treatment
Outline: as §2

POLCO = assay: Post-emergence herbicidal action against POLCO; format: in vivo, Polygonum convolvulus; conditions: application rate 80 g/ha, rated visually about 3 weeks after treatment
Outline: as §2

SETVI = assay: Post-emergence herbicidal action against SETVI; format: in vivo, Setaria viridis; conditions: application rate 80 g/ha, rated visually after about 3 weeks
Outline: as §2

HORMU = assay: Post-emergence herbicidal action against HORMU; format: in vivo, Hordeum murinum; conditions: application rate 80 g/ha
Outline: as §2

ABUTH = assay: Post-emergence herbicidal action against ABUTH; format: in vivo, Abutilon theophrasti; conditions: application rate 80 g/ha, rated visually about 3 weeks after treatment
Outline: as §2

Row | SMILES | Herbicidal action against [%] VIOTR (VIOTR) [%] | Herbicidal action against [%] AVEFA (AVEFA) [%] | Herbicidal action against [%] ALOMY (ALOMY) [%] | Herbicidal action against [%] LOLRI (LOLRI) [%] | Herbicidal action against [%] AMARE (AMARE) [%] | Herbicidal action against [%] PHBPU (PHBPU) [%] | Herbicidal action against [%] VERPE (VERPE) [%] | Herbicidal action against [%] ECHCG (ECHCG) [%] | Herbicidal action against [%] STEME (STEME) [%] | Herbicidal action against [%] POLCO (POLCO) [%] | Herbicidal action against [%] SETVI (SETVI) [%] | Herbicidal action against [%] HORMU (HORMU) [%] | Herbicidal action against [%] ABUTH (ABUTH) [%]
1 | CC(C)(C#N)NC(=O)C1C=CC(NC(=O)C2(C)CC(c3cc(F)cc(F)c3)=NO2)C1 (mixture of isomers) [II-10] | 90 | 90 | 90 | 90 | 80 | 90 | 80 | 90 | 90 | 90 |  |  | 
2 | O=C(O)C1=C[C@@H](NC(=O)[C@@]2(C(F)(F)F)CC(c3cc(F)cc(F)c3)=NO2)CC1 [Example V-04] | 80 |  | 100 | 90 | 80 |  | 80 | 80 | 90 |  | 80 | 90 | 80
3 | COCCOC(=O)C1C=CC(NC(=O)C2(C(F)(F)F)CC(c3cc(F)cc(C#N)c3)=NO2)C1 (stereo not shown) [Example I-099] | 80 | 90 | 90 | 100 | 80 |  | 80 | 80 | 80 | 80 | 90 | 80 | 
4 | C=CC1(C(=O)NC2C=CC(C(=O)O)C2)CC(c2cc(F)cc(F)c2)=NO1 (stereo not shown) [Example I-014] | 90 | 90 | 90 | 90 | 90 |  | 90 | 90 | 90 | 80 | 80 | 80 | 
5 | Cc1cc(C)cc(C2=NOC(C(=O)NC3C=CC(C(=O)OCC(F)(F)F)C3)(C(F)(F)F)C2)c1 (mixture of isomers) [Example I-057] | 80 |  | 90 | 90 |  |  | 80 | 80 | 80 | 80 |  | 80 | 
6 | COC(=O)C(C)(C)NC(=O)C1C=CC(NC(=O)C2(C(F)(F)F)CC(c3cc(F)cc(F)c3)=NO2)C1 (mixture of isomers) [II-36] | 90 | 100 | 90 | 90 | 90 | 90 | 80 |  |  | 90 |  | 80 | 
7 | N#Cc1cc(F)cc(C2=NOC(C(=O)NC3C=CC(C(=O)OCCCl)C3)(C(F)(F)F)C2)c1 (mixture of isomers) [Example I-089] | 90 | 100 | 100 | 100 | 90 |  | 90 | 90 | 90 | 90 | 80 | 100 | 90
8 | CCCS(=O)(=O)NC(=O)C1C=CC(NC(=O)C2(C(F)(F)F)CC(c3cc(F)cc(F)c3)=NO2)C1 (mixture of isomers) [II-33] | 90 | 100 |  | 90 | 90 |  | 80 | 80 | 80 | 90 | 80 | 90 | 80
9 | CCOC(=O)C1C=CC(NC(=O)C2(C(F)(F)F)CC(c3cccc(C#N)c3)=NO2)C1 (mixture of isomers) [Example I-072] | 80 | 100 | 90 | 90 | 80 |  | 80 | 90 | 80 | 90 | 80 | 90 | 80
10 | COC(=O)C(NC(=O)C1C=CC(NC(=O)C2(C(F)(F)F)CC(c3cc(F)cc(F)c3)=NO2)C1)C(C)C (mixture of isomers) [II-37] | 90 | 100 | 80 | 100 | 90 |  | 90 |  | 90 | 100 | 80 | 90 | 80
11 | O=C(C1C=CC(NC(=O)C2(C(F)(F)F)CC(c3cc(F)cc(F)c3)=NO2)C1)N1CCCCO1 (mixture of isomers) [II-31] | 90 | 100 | 90 | 90 | 80 |  | 90 | 90 | 90 | 90 | 80 | 80 | 90
12 | C=CC1(C(=O)NC2C=CC(C(=O)OC(C)(C)C)C2)CC(c2cc(F)cc(F)c2)=NO1 (mixture of isomers) [Example I-060] | 80 | 90 | 90 |  | 80 | 80 |  | 90 |  |  |  | 90 | 

— US12319664B2, “Herbicidally active 3-phenylisoxazoline-5-carboxamides of cyclopentenylcarboxylic acid derivatives” (Bayer Aktiengesellschaft, priority 2018, dated 2025)
